BindingDB's records for doi:10.1016/j.bioorg.2014.07.012 (Kurukshetra University, 2014)

Tests used:
Cathepsin B = Cathepsin B (Capra hircus, UniProt H9B8T9); assay: Enzymatic activity assay; conditions: pH 6; 37 °C
Procedure: (§1) Enzyme was equilibrated in 0.1 M phosphate buffer, pH 6.0 at 37 °C. All compounds were prepared in DMSO. Various concentrations of compounds were added in the reaction mixture separately. The reactions were incubated for 30 min and the activity was estimated by the usual enzyme assay at pH 6.0 using a-N-benzoyl-D,L-arginine-2-naphthylamide (BANA) as substrate.

Cathepsin H = target: T1, Cathepsin H (Capra hircus, UniProt A0A060INS8); assay: Enzymatic activity assay; conditions: pH 6; 37 °C
T1 sequence (A0A060INS8 whole entry): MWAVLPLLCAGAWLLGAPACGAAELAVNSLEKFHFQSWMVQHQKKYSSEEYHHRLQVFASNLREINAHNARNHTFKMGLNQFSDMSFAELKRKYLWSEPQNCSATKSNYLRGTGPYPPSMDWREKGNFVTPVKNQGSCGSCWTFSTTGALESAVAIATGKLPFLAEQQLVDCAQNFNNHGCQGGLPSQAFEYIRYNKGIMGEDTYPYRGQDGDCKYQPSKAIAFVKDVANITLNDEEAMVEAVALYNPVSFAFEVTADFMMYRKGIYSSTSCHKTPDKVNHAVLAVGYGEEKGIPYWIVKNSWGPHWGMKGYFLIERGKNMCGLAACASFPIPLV
Procedure: as §1

Ki (Cathepsin B) [nM] | Ki (Cathepsin H) [nM] | Compound
775 | 1890 | O=C(c1ccccc1)N1N=C(c2ccccc2)CC1c1ccccc1Cl (stereo not given) [N-benzoyl-5-(-2'-chlorophenyl)-3-phenylpyrazoline (2b)]
22.7 | 174 | O=CN1N=C(c2ccccc2)CC1c1ccccc1 (stereo not given) [N-formyl-3,5-diphenylpyrazoline (1a)]
925 | 3010 | O=C(c1ccccc1)N1N=C(c2ccccc2)CC1c1ccc(Cl)cc1 (stereo not given) [N-benzoyl-5-(-4'-chlorophenyl)-3-phenylpyrazoline (2d)]
18 | 135 | O=CN1N=C(c2ccccc2)CC1c1ccccc1Cl (stereo not given) [N-formyl-5-(-2'-chlorophenyl)-3-phenylpyrazoline (1b)]
1150 | 3200 | O=C(c1ccccc1)N1N=C(c2ccccc2)CC1c1ccccc1 (stereo not given) [N-benzoyl-3,5-diphenylpyrazoline (2a)]
11.3 | 58 | O=CN1N=C(c2ccccc2)CC1c1ccc([N+](=O)[O-])cc1 (stereo not given) [N-formyl-5-(-4'-nitrophenyl)-3-phenylpyrazoline (1j)]
66.8 | 387 | COc1ccccc1C1CC(c2ccccc2)=NN1C=O (stereo not given) [N-formyl-5-(-2'-methoxyphenyl)-3-phenylpyrazoline (1e)]
572 | 1440 | O=C(c1ccccc1)N1N=C(c2ccccc2)CC1c1ccccc1[N+](=O)[O-] (stereo not given) [N-benzoyl-5-(-2'-nitrophenyl)-3-phenylpyrazoline (2h)]
1.1 | 51.9 | O=CN1N=C(c2ccccc2)CC1c1cccc([N+](=O)[O-])c1 (stereo not given) [N-formyl-5-(-3'-nitrophenyl)-3-phenylpyrazoline (1i)]
45.5 | 272 | COc1cccc(C2CC(c3ccccc3)=NN2C=O)c1 (stereo not given) [N-formyl-5-(-3'-methoxyphenyl)-3-phenylpyrazoline (1f)]
4900 | 9650 | COc1ccccc1C1CC(c2ccccc2)=NN1C(=O)c1ccccc1 (stereo not given) [N-benzoyl-5-(-2'-methoxyphenyl)-3-phenylpyrazoline (2e)]
1590 | 5030 | COc1cccc(C2CC(c3ccccc3)=NN2C(=O)c2ccccc2)c1 (stereo not given) [N-benzoyl-5-(-3'-methoxyphenyl)-3-phenylpyrazoline (2f)]
14.1 | 96.3 | O=CN1N=C(c2ccccc2)CC1c1ccccc1[N+](=O)[O-] (stereo not given) [N-formyl-5-(-2'-nitrophenyl)-3-phenylpyrazoline (1h)]
14.6 | 130 | O=CN1N=C(c2ccccc2)CC1c1cccc(Cl)c1 (stereo not given) [N-formyl-5-(-3'-chlorophenyl)-3-phenylpyrazoline (1c)]
677 | 1810 | O=C(c1ccccc1)N1N=C(c2ccccc2)CC1c1cccc(Cl)c1 (stereo not given) [N-benzoyl-5-(-3'-chlorophenyl)-3-phenylpyrazoline (2c)]
195 | 980 | O=C(c1ccccc1)N1N=C(c2ccccc2)CC1c1cccc([N+](=O)[O-])c1 (stereo not given) [N-benzoyl-5-(-3'-nitrophenyl)-3-phenylpyrazoline (2i)]
287 | 1270 | O=C(c1ccccc1)N1N=C(c2ccccc2)CC1c1ccc([N+](=O)[O-])cc1 (stereo not given) [N-benzoyl-5-(-4'-nitrophenyl)-3-phenylpyrazoline (2j)]
21.1 | 137 | O=CN1N=C(c2ccccc2)CC1c1ccc(Cl)cc1 (stereo not given) [N-formyl-5-(-4'-chlorophenyl)-3-phenylpyrazoline (1d)]
1280 | 4100 | COc1ccc(C2CC(c3ccccc3)=NN2C(=O)c2ccccc2)cc1 (stereo not given) [N-benzoyl-5-(-4'-methoxyphenyl)-3-phenylpyrazoline (2g)]
44.8 | 221 | COc1ccc(C2CC(c3ccccc3)=NN2C=O)cc1 (stereo not given) [N-formyl-5-(-4'-methoxyphenyl)-3-phenylpyrazoline (1g)]
